The numbers were not newly measured in US11608326B2, “Synthetic receptors for ionophoric compounds” (Universiteit Gent, priority 2018, dated 2023), which cites them from elsewhere.

Data set [1] deals with human leukemia cells. As to conditions: 3 μM, overnight incubation.
Data set [2] relates to human neural (Paju) cells.

In the case of beauvericin, the “drop of survival rate” value in data set [1] is reported as 80%. For the same substance, the “concentration sufficient to cause depolarization” value in data set [2] was “low μM concentrations”.
